Assay results published in US11161825B2, “4-oxo-2,3,4,5-tetrahydro-1H-1,5-benzodiazepine-7-carboxamides” (Bayer Aktiengesellschaft, priority 2017, dated 2021).

Experiments:
SMYD3 = target: T1, SMYD3 (Homo sapiens, UniProt Q9H7B4); assay: SMYD3 Scintillation Proximity Assay (SPA), methylation of MAP3K2 Peptide; format: biochemical; conditions: SMYD3 full length enzyme 10 nM, 3H-SAM 125 nM, MAP3K2 Peptide 1 μM, 120 min at 22° C.
T1 construct: The SMYD3 full length enzyme was produced in-house by expression (with an N-terminal 6×His tag) in E. coli; 6xHis (N); made in house; host or cells: E. coli
T1 sequence (Q9H7B4 1-428): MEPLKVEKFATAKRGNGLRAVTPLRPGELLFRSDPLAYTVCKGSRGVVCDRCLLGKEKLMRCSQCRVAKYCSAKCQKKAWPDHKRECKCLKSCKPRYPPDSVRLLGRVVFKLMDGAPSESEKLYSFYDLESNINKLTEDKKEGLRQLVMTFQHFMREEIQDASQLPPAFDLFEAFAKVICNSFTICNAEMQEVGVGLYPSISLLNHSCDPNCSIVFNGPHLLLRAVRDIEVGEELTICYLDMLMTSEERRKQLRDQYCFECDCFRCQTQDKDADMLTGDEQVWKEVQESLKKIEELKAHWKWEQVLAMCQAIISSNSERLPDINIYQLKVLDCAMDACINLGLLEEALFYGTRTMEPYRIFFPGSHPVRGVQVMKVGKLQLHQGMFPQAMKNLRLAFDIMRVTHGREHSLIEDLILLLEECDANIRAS
Description: SMYD3 Scintillation Proximity Assay (SPA)
The SMYD3 full length enzyme was produced in-house by expression (with an N-terminal 6×His tag) in E. coli and purification by affinity chromatography on a Ni-NTA Sepharose column followed by a size exclusion chromatography step on a Superdex 200 16/60 column (GE Healthcare).
To this end, 100-fold concentrated compound solutions (in DMSO) were previously prepared by serial dilution (1:3.4) of 2 mM stocks in a clear low volume 384-well source microtiter plate (Greiner Bio-One), from which 100 nl of compounds were transferred into a white low volume test microtiter plate from the same supplier. […] The resulting mixture (5 μl final volume) was shortly centrifuged (2 min., 1500 rpm) and incubated at 22° C. during 120 min. […] Plates containing the stopped reaction were sealed with transparent adhesive foil (Perkin Elmer), centrifuged (2 min., 1500 rpm), and further incubated overnight at 4° C. in order to allow the SPA signals to develop. Subsequently, the amount of product was evaluated by measuring the energy transfer from the […] emitted by the 3H-labeled substrate to the scintillator co-polymerized in the bead's matrix, using a TopCount NXT scintillation counter (Packard) with the standard instrument settings for this purpose. The resulting scintillation counts were taken as indicator for the amount of methylated peptide per well. […] IC50 values were calculated by fitting the normalized inhibition data to a 4-parameter logistic equation using the XLFit analysis software (IDBS).

[1] = target: T2, untagged full length SMYD3 (Homo sapiens, UniProt Q9H7B4); assay: Thermal Shift Assay; format: binding; conditions: protein 1.5-2.0 μM, 5× SYPRO Orange, scans 25° C. to 80° C.; control 4% DMSO
T2 construct: As protein untagged full length SMYD3 was used
T2 sequence (Q9H7B4 1-428): T1 sequence (Q9H7B4 1-428)
Description: Thermal Shift Assay Thermal melting experiments were performed with a ViiA™ Real-Time PCR machine (Thermo Fisher Scientific) in 384-well microliter plate with a final volume of 5 μL. Melting curves were obtained at a protein concentration of 1.5-2.0 μM and 5× SYPRO Orange (Invitrogen) using buffer containing 20 mM Tris pH7.0; 150 mM NaCl; 1.0 mM DTT. As protein untagged full length SMYD3 was used. […] As control 4% DMSO was used. Scans were measured from 25° C. to 80° C. at a scanning rate of 0.1° C./sec. All TSA data were analyzed by using Genedata Assay Analyzer.

Row | SMILES | IC50 (SMYD3) | Thermal shift assay (° C.) [1]
1 | CC1C(=O)Nc2cc(C(=O)NCCC3CCC3)ccc2N(C(=O)c2ccccc2)C1C (mixture of isomers) [Example 4, 1-benzoyl-N-(2-cyclobutylethyl)-2,3-dimethyl-4-oxo-2,3,4,5-tetrahydro-1H-1,5-benzodiazepine-7-carboxamide] | 1.23 µM | 4.38 °C
2 | CC1C(=O)Nc2cc(C(=O)NCCC3CC3)ccc2N(C(=O)N2CCC(N)CC2)C1C (mixture of isomers) [Example 19, 1-[(4-aminopiperidin-1-yl)carbonyl]-N-(2-cyclopropylethyl)-2,3-dimethyl-4-oxo-2,3,4,5-tetrahydro-1H-1,5-benzodiazepine-7-carboxamide] | 0.0372 µM | 10.30 °C
3 | Cc1nocc1C(=O)N1c2ccc(C(=O)NCCC3CC3)cc2NC(=O)CC1C (racemic) [Example 5, N-(2-cyclopropylethyl)-2-methyl-1-[(3-methyl-1,2-oxazol-4-yl)carbonyl]-4-oxo-2,3,4,5-tetrahydro-1H-1,5-benzodiazepine-7-carboxamide] | > 20 µM | 2.90 °C
4 | Cc1nocc1C(=O)N1c2ccc(C(=O)NCCC3CCC3)cc2NC(=O)CC1C (racemic) [Example 6, N-(2-cyclobutylethyl)-2-methyl-1-[(3-methyl-1,2-oxazol-4-yl)carbonyl]-4-oxo-2,3,4,5-tetrahydro-1H-1,5-benzodiazepine-7-carboxamide] | 12.8 µM | 2.83 °C
5 | CCCCCNC(=O)c1ccc2c(c1)NC(=O)CC(C)N2C(=O)c1ccccc1F (racemic) [Example 46, 1-(2-fluorobenzoyl)-2-methyl-4-oxo-N-pentyl-2,3,4,5-tetrahydro-1H-1,5-benzodiazepine-7-carboxamide] | 38.7 µM | 2.02 °C
6 | CCCCCNC(=O)c1ccc2c(c1)NC(=O)CC(C)N2C(=O)C1CCCC1 (racemic) [Example 48, 1-(cyclopentylcarbonyl)-2-methyl-4-oxo-N-pentyl-2,3,4,5-tetrahydro-1H-1,5-benzodiazepine-7-carboxamide] | 26.7 µM | 1.60 °C
7 | CCCNC(=O)c1ccc2c(c1)NC(=O)CC(C)N2C(=O)c1cccs1 (racemic) [Example 49, 2-methyl-4-oxo-N-propyl-1-(2-thienylcarbonyl)-2,3,4,5-tetrahydro-1H-1,5-benzodiazepine-7-carboxamide] |  | 1.43 °C
8 | CCCCNC(=O)c1ccc2c(c1)NC(=O)CC(C)N2C(=O)C1CC1 (racemic) [Example 50, N-butyl-1-(cyclopropylcarbonyl)-2-methyl-4-oxo-2,3,4,5-tetrahydro-1H-1,5-benzodiazepine-7-carboxamide] | 35 µM | 
9 | CCCCNC(=O)c1ccc2c(c1)NC(=O)CC(C)N2C(=O)c1cccc(F)c1 (racemic) [Example 52, N-butyl-1-(3-fluorobenzoyl)-2-methyl-4-oxo-2,3,4,5-tetrahydro-1H-1,5-benzodiazepine-7-carboxamide] | 18.3 µM | 1.16 °C
10 | CCCCNC(=O)c1ccc2c(c1)NC(=O)CC(C)N2C(=O)c1ccccc1F (racemic) [Example 53, N-butyl-1-(2-fluorobenzoyl)-2-methyl-4-oxo-2,3,4,5-tetrahydro-1H-1,5-benzodiazepine-7-carboxamide] | 12.3 µM | 2.53 °C
11 | Cc1nocc1C(=O)N1c2ccc(C(=O)NCCC3CC3)cc2NC(=O)C(C)C1C (single isomer, unassigned) [Example 8, N-(2-cyclopropylethyl)-2,3-dimethyl-1-[(3-methyl-1,2-oxazol-4-yl)carbonyl]-4-oxo-2,3,4,5-tetrahydro-1H-1,5-benzodiazepine-7-carboxamide] | 4.9 µM | 3.77 °C
12 | Cc1nocc1C(=O)N1c2ccc(C(=O)NCCC3CC3)cc2NC(=O)C(C)C1C (single isomer, unassigned) [Example 9, N-(2-cyclopropylethyl)-2,3-dimethyl-1-[(3-methyl-1,2-oxazol-4-yl)carbonyl]-4-oxo-2,3,4,5-tetrahydro-1H-1,5-benzodiazepine-7-carboxamide] | > 20 µM | 1.82 °C
13 | Cc1nocc1C(=O)N1c2ccc(C(=O)NCCC3CC3)cc2NC(=O)C(C)C1C (single isomer, unassigned) [Example 11, N-(2-cyclopropylethyl)-2,3-dimethyl-1-[(3-methyl-1,2-oxazol-4-yl)carbonyl]-4-oxo-2,3,4,5-tetrahydro-1H-1,5-benzodiazepine-7-carboxamide] | 12.9 µM | 3.50 °C
14 | C[C@@H]1CC(=O)Nc2cc(C(=O)NCCC3CC3)ccc2N1C(=O)N1CC2CC2C1 (stereo partly drawn) [Example 55, (2R)-1-(3-azabicyclo[3.1.0]hexane-3-carbonyl)-N-(2-cyclopropylethyl)-2-methyl-4-oxo-2,3,4,5-tetrahydro-1H-1,5-benzodiazepine-7-carboxamide] | 2.64 µM | 

Continued, values first:

Row | IC50 (SMYD3) | Thermal shift assay (° C.) [1] | SMILES
15 | 1.26 µM | 5.21 °C | CC1C(=O)Nc2cc(C(=O)NCCC3CC3)ccc2N(C(=O)c2ccccc2)C1C (mixture of isomers) [Example 2, 1-benzoyl-N-(2-cyclopropylethyl)-2,3-dimethyl-4-oxo-2,3,4,5-tetrahydro-1H-1,5-benzodiazepine-7-carboxamide]
16 | 1.66 µM | 5.27 °C | CC1CC(=O)Nc2cc(C(=O)NCCC3CC3)ccc2N1C(=O)c1ccccc1 (racemic) [Example 1, 1-benzoyl-N-(2-cyclopropylethyl)-2-methyl-4-oxo-2,3,4,5-tetrahydro-1H-1,5-benzodiazepine-7-carboxamide]
17 | 1.63 µM | 4.56 °C | CC1CC(=O)Nc2cc(C(=O)NCCC3CCC3)ccc2N1C(=O)c1ccccc1 (racemic) [Example 3, 1-benzoyl-N-(2-cyclobutylethyl)-2-methyl-4-oxo-2,3,4,5-tetrahydro-1H-1,5-benzodiazepine-7-carboxamide]
18 | 22.1 µM | 1.68 °C | CCCCCNC(=O)c1ccc2c(c1)NC(=O)CC(C)N2C(=O)c1ccc(C)cc1 (racemic) [Example 47, 2-methyl-1-(4-methylbenzoyl)-4-oxo-N-pentyl-2,3,4,5-tetrahydro-1H-1,5-benzodiazepine-7-carboxamide]
19 | 24.4 µM | 1.83 °C | CCCCNC(=O)c1ccc2c(c1)NC(=O)CC(C)N2C(=O)CCC1CCCC1 (racemic) [Example 51, N-butyl-1-(3-cyclopentylpropanoyl)-2-methyl-4-oxo-2,3,4,5-tetrahydro-1H-1,5-benzodiazepine-7-carboxamide]
20 | > 20 µM | 1.29 °C | Cc1nocc1C(=O)N1c2ccc(C(=O)NCCC3CC3)cc2NC(=O)C(C)C1C (single isomer, unassigned) [Example 10, N-(2-cyclopropylethyl)-2,3-dimethyl-1-[(3-methyl-1,2-oxazol-4-yl)carbonyl]-4-oxo-2,3,4,5-tetrahydro-1H-1,5-benzodiazepine-7-carboxamide]
21 | 2.53 µM |  | C[C@H]1CC(=O)Nc2cc(C(=O)N(C)CCC3CC3)ccc2N1C(=O)N1CC2CC2C1 (stereo partly drawn) [Example 54, (2S)-1-(3-azabicyclo[3.1.0]hexane-3-carbonyl)-N-(2-cyclopropylethyl)-N,2-dimethyl-4-oxo-2,3,4,5-tetrahydro-1H-1,5-benzodiazepine-7-carboxamide]
22 | > 30 µM |  | C[C@@H]1CC(=O)Nc2cc(C(=O)N(C)CCC3CC3)ccc2N1C(=O)N1CC2CC2C1 (stereo partly drawn) [Example 56, (2R)-1-(3-azabicyclo[3.1.0]hexane-3-carbonyl)-N-(2-cyclopropylethyl)-N,2-dimethyl-4-oxo-2,3,4,5-tetrahydro-1H-1,5-benzodiazepine-7-carboxamide]
